# Measurements from US20080045499A1, “Preferential Inhibition of Presenilin-1” (Elan Pharmaceuticals, Inc., priority 2006, published 2008).
# Like-named read-outs stand apart in the source and are kept apart here.
# Assays:
# 293sw = 293sw IC50 of gamma-secretase inhibitors; type: cell-based
# [1] = tested on: Presenilin-1-comprised γ-secretase relative to Presenilin-2-comprised γ-secretase; assay: PS1/PS2 selectivity: ratio of EC50 in Presenilin-2 and Presenilin-1 transfected cells; type: cell-based, human; details: for PS2/PS1 EC50 ratio: EC50 of Presenilin-2 transfected cells over Presenilin-1 transfected cells
# Excerpt: (§1) EC50 values were derived by curve fitting of Aβ1-x levels, for samples treated with various concentrations of gamma secretase inhibitors, with XLfit software program (IDBS, Alameda, Calif., USA). Differences in EC50 values obtained for Presenilin-1 transfected cells and Presenilin-2 transfected cells exposed to a test compound served as an indicator of differential inhibition.
# Cell culture medium is then removed from the transfected cell lines and analyzed for Aβ1-x levels by ELISA assay, as described in Example 1. ELISA assays are performed using ELISA plates coated with the mAb 266 to capture Aβ peptides and then by detecting Aβ peptides with biotinylated mAb 3D6. EC50 values are derived for all of the test compounds. Differences in EC50 values obtained for Presenilin-1 transfected cells and Presenilin-2 transfected cells exposed to a test compound serve as an indicator of differential inhibition.
# For example, several tested compounds are sulfonamide compounds, while several are non-sulfonamide compounds. The ratio of the EC50 value obtained for Presenilin-2 transfected cells and Presenilin-1 transfected cells (indicated in the last column of Table I) indicates the degree to which the test compound is capable of preferentially inhibiting Presenilin-1. […] In Table 2, the values shown in columns A, B and C are EC50 values (nM). Where inhibition was very low, EC50 values were not generated by the program; thus EC50 values are not provided. Rather, percent of inhibition was estimated based on the inhibition curve generated by the program. Percentages indicate percentage inhibition at a compound concentration of 10 uM. […]
# [2] = molecular target: T1, Presenilin-2-comprised γ-secretase (Homo sapiens, UniProt P49810); assay: Aβ1-x ELISA in Presenilin-2 transfected PS1/PS2 double knockout mouse fibroblasts; type: cell-based; details: Aβ1-x, Presenilin-2 transfected cells, overnight
# T1 construct: expressed in transfected cells; host or cells: mouse fibroblasts derived from PS1/PS2 double knockout cells, pCF vector
# Excerpt: (§2) A131-x represents any Aβ peptides longer than Aβ1-23, including Aβ38, Aβ40, and Aβ42, since Aβ1-x is defined operationally by an ELISA assay using proprietary antibody mAb 266 for capture and proprietary antibody mAb 3D6 for detection. The epitope for mAb266 is Aβ16-23, and the epitope for mAb 3D6 is Aβ1-5. […] Aβ40 ELISA employed antibodies mAb 266 as capture and 2G3 (specific for Ab40) as detection, respectively. Furthermore, Aβ42 ELISA employed antibodies mAb 266 as capture and 21F12 as detection, respectively. Hybridomas producing antibodies against Aβ16-23 were generated by standard murine fusion procedures as detailed in Kohler and Milstein (Nature 256:495 1975) and U.S. Pat. No. 4,666,829 which are hereby incorporated by reference in their entireties. See also “Detailed Description” herein. Briefly, two BALB/c mice immunized with Aβ13-28 conjugated to 2C-11 (a T-cell receptor monoclonal antibody) were sacrificed and the spleens removed. Mixed splenocytes were obtained by pressing the spleens through a 30 mesh stainless steel screen. These were fused with P3X63Ag8 murine myeloma cells (aminopterin sensitive) at a fusion ratio of 10:1 in 35% polyethylene-glycol. These cells were plated out in 96 well tissue culture plates in the presence of 2×10^6 thymocytes/ml. Hybridomas were selected for by growing the cells in the presence of aminopterin poisoned Dulbecco's modified Eagle's media augmented with hypoxanthine, thymine and 10% fetal bovine serum. Hybridomas were screened for reactivity against Aβ13-28 and AAP protein via ELISA. Positive clones were sub-cloned twice. Aliquots of the clones were frozen and stored in liquid nitrogen. Supernatants from positive clones were produced in large quantities for further purification of monoclonal antibodies.
# (§3) For ELISA assays, each well of 96-well ELISA plates was coated with 100 μl of 10 μg/ml 266 in Well Coating Buffer (pH 8.5) at 4 degrees overnight, and blocked with 0.25% human BSA solution at 25 degrees for 120 minutes. The plate can be used directly without wash, after removing blocking solution.
# (§4) ELISA assays were performed at room temperature. Fifty μl of conditioned medium from overnight culture of transfected cells, with or without gamma secretase inhibitors, were added to each well of ELISA plates, and incubated for 1 hour. After washing plates with Tris-buffered saline (TBS) plus 0.05% Tween-20, 50 μl biotinylated 3D6 antibody at 0.5 μg/ml was added to each well and incubate for 45 minutes. […] Next, plates were washed with Tris-buffered saline (TBS) plus 0.05% Tween-20, and 50 μl substrate (1-step slow TMB-Elisa, Pierce, Woburn, Mass., USA, catalogue number: 34024) was added to each well and incubated for 15 min. Finally, substrate reactions were terminate by adding to each well 15 ul 2 NH2SO4, and OD readings were obtained on SpectraMax Plus (Molecular Devices, Sunnyvale, Calif., USA). The Aβ concentration of samples was then obtained by comparing sample OD readings to those of standards.
# as §1
# (§5) Transfected mouse fibroblasts derived from the PS1/PS2 double knockout cells are grown at 37 degree under 10% CO2 in Dulbecco's modified Eagle's medium (DMEM) containing 2-10% fetal bovine serum (FBS) and 100 μg/ml penicillin/streptomycin (Pen/Strp) (Invitrogen Corporation, Carlsbad, Calif., USA).
# (§6) Cell culture medium is then removed from the transfected cell lines and analyzed for Aβ1-x levels by ELISA assay, as described in Example 1. ELISA assays are performed using ELISA plates coated with the mAb 266 to capture Aβ peptides and then by detecting Aβ peptides with biotinylated mAb 3D6.
# [3] = molecular target: T2, Presenilin-1-comprised γ-secretase (Homo sapiens, UniProt P49768); assay: Aβ1-x ELISA in Presenilin-1 transfected PS1/PS2 double knockout mouse fibroblasts; type: cell-based; details: Aβ1-x, Presenilin-1 transfected cells, overnight
# T2 construct: expressed in transfected cells; host or cells: mouse fibroblasts derived from PS1/PS2 double knockout cells, pCF vector
# Excerpt: as §2, §3, §4, §1, §5, §6
# PS2/1C = assay: Inhibition of chimeric presenilin PS2/1C; type: cell-based, human; details: chimeric PS1/PS2 molecule, FIG. 11
# Excerpt: Human PS1, PS2, and APPsw cDNA inserts were subcloned into pCF vector, which was modified with pcDNA3 (Invitrogen, CA, USA) by inserting the adenoviral tripartite leader sequence (Berkner et al, (1987) J. Virol. April; 61(4): 1213-20. Abundant expression of polyomavirus middle T antigen and dihydrofolate reductase in an adenovirus recombinant) 38 bp upstream of the starting ATG codon, between the CMV promoter and the EcoR1 site. Construction of presenilin chimeras was PCR-based. For making chimeras that contain PS1backbone and a PS2 fragment, we first generated a large PCR fragment that contained the entire pCF vector plus all PS1 sequence to be retained, and a small PCR fragment that only contained the PS2 fragment to be used in the final chimera. The two PCR fragments were then ligated in a blunt-end fashion by Rapid DNA ligation kit (Roche, Ind., USA). We used pfu Turbo DNA polymerase kit (Strategene, Calif., USA) for all PCR reactions. To avoid potential mutations introduced by PCR, we first sequenced the entire insert in both strands. […] For making chimeras that contained PS2 backbone and a PS1 fragment, we first generated a large PCR fragment that contained the entire pCF vector plus all PS2 sequence to be retained, and a small PCR fragment that only contained the PS1 fragment to be used in the final chimera. All other cloning procedures were the same as described above. […]
# [4] = column A, read-out: PS2 EC50* (nM) A
# [5] = column B, read-out: PS2 EC50* (nM) B
# [6] = column A, read-out: PS1 EC50 (nM) A
# [7] = column B, read-out: PS1 EC50 (nM) B
# [8] = column C, read-out: PS1 EC50 (nM) C
# [9] = column C, read-out: PS2 EC50* (nM) C
PS2/PS1 EC50 ratio [1],"EC50 [2, 4] [nM]","EC50 [2, 5] [nM]","EC50 [3, 6] [nM]","EC50 [3, 7] [nM]","EC50 [3, 8] [nM]","EC50 [2, 9] [nM]",Compound,IC50 (293sw) [nM],fold more selective for PS1 ([1]; mean values from 2 independent experiments (FIG. 11)) [fold],inhibitor potencies against PS2/1C compared with PS1 (PS2/1C)
15,1920,3410,106,259,159,–,O=C1NCCCC[C@H]1N(Cc1ccc(Br)cc1)S(=O)(=O)c1ccc(Cl)cc1,243,–,–
31,1570,2290,92,189,87,–,O=C1NCCCC[C@H]1N(Cc1ccc(Br)cc1)S(=O)(=O)c1ccc(Cl)nc1,118,–,–
15,589,924,40,75,42,–,Cn1nnc2cc(CN([C@@H]3CCCCNC3=O)S(=O)(=O)c3ccc(Cl)cc3)ccc21,51,–,–
23,1980,1840,84,53,114,–,Cn1nnc2cc(CN([C@@H]3CCCCNC3=O)S(=O)(=O)c3ccc(Cl)nc3)ccc21,238,–,–
12,175,156,20,5.9,26,263,O=C1NCCCC[C@H]1N(Cc1ccc(-c2ncon2)cc1)S(=O)(=O)c1ccc(Cl)cc1,16,–,–
10,585,412,30,50,74,553,O=C1NCCCC[C@H]1N(Cc1ccc(-c2nccs2)cc1)S(=O)(=O)c1ccc(Cl)cc1,77,–,–

# Further lines, the compound ahead of its results:
Compound,PS2/PS1 EC50 ratio [1],"EC50 [2, 4] [nM]","EC50 [2, 5] [nM]","EC50 [3, 6] [nM]","EC50 [3, 7] [nM]","EC50 [3, 8] [nM]","EC50 [2, 9] [nM]",IC50 (293sw) [nM],fold more selective for PS1 ([1]; mean values from 2 independent experiments (FIG. 11)) [fold],inhibitor potencies against PS2/1C compared with PS1 (PS2/1C)
CCS(=O)(=O)CC[C@@H](C)N(c1cc(Cl)ccc1Cl)S(=O)(=O)c1ccc(Cl)cc1,10,5000,5700,153,868,598,–,182,–,–
C[C@H](NC(=O)[C@@H](O)c1cc(F)cc(F)c1)C(=O)Nc1cc(C(C)(C)c2ccccc2)n[nH]1,2,26,23,8.2,8.3,19,–,1,–,–
C[C@H](NC(=O)[C@@H](O)c1cc(F)cc(F)c1)C(=O)N[C@H](C(=O)NCC1CN(c2ccccc2)CCO1)c1ccccc1 (some centres unmarked),2,45,44,10,37,17.5,–,41,–,–
COc1ccc(CN([C@@H]2CCCCNC2=O)S(=O)(=O)c2ccc(Cl)cc2)cc1OC,27,1290,1980,91,89,109,4540,126,–,–
Cn1nnc2cc(CN([C@@H]3CCCCNC3=O)S(=O)(=O)c3ccc(Cl)s3)ccc21,47,6410,5310,122,87,102,3000,775,–,–
BMS299897 [reference compound],–,–,–,–,–,–,–,–,~35,behaved just like PS1
